One data set concerns RSV strain A2. Nature of the data set: RSV HEp-2 EC50 (infectious cytopathic cell protection assay). Format: cell-based, RSV strain A2; HEp-2 cells. The following applies: human respiratory syncytial virus, HEp-2, 96 h, read-out: RSV Hep-2 EC50. How it is done:
Example 86. RSV HEp-2 EC50
Antiviral activity against RSV is determined using an infectious cytopathic cell protection assay in HEp-2 cells. In this assay, compounds inhibiting viral infection and/or replication produce a cytoprotective effect against the virus-induced cell killing that can be quantified using a cell viability reagent. The techniques used here are novel adaptations of methods described in published literature (Chapman et al., Antimicrob Agents Chemother. 2007, 51(9):3346-53.)
HEp-2 cells are obtained from ATCC (Manassas, VI) and maintained in MEM media supplemented with 10% fetal bovine serum and penicillin/streptomycin. Cells are passaged twice a week and kept at subconfluent stage. Commercial stock of RSV strain A2 (Advanced Biotechnologies, Columbia, MD) is titered before compound testing to determine the appropriate dilution of the virus stock that generates desirable cytopathic effect in HEp-2 cells.
For antiviral tests, HEp-2 cells are grown in large cell culture flasks to near confluency but not fully so. The compounds to be tested are prediluted in DMSO in 384-well compound dilution plates, either in an 8 or 40 sample per plate standardized dose response format. 3-fold serial dilution increments of each test compound are prepared in the plates and test samples are transferred via acoustic transfer apparatus (Echo, Labcyte) at 100 nL per well into cell culture assay 384-well plates. Each compound dilution is transferred in single or quadruplicate samples into dry assay plates, which are stored until assay is ready to go. The positive and negative controls are laid out in opposite on ends of the plate in vertical blocks (1 column).
Subsequently, an infectious mixture is prepared using an appropriate dilution of virus stock previously determined by titration with cells at a density of 50,000/mL and 20 uL/well is added to test plates w/compounds via automation (uFlow, Biotek). Each plate includes negative and positive controls (16 replicates each) to create 0% and 100% virus inhibition standards, respectively. Following the infection with RSV, testing plates are incubated for 4 days in a 37° C. cell culture incubator. After the incubation, a cell viability reagent, Cell TiterGlo (Promega, Madison, WI) is added to the assay plates, which are incubated briefly, and a luminescent readout is measured (Envision, Perkin Elmer) in all the assay plates. The RSV-induced cytopathic effect, percentage inhibition, is determined from the levels of remaining cell viability. […] Various potent anti-RSV tool compounds are used as positive controls for antiviral activity.
(Damage to the host cells serves as the signal in cytopathic effect assays.)

The nature of data set [1]: Huh-7 CC50 (CellTiter Glo viability). In kind it is cell-based, Human. The following applies: human, Huh7 hepatocarcinoma cells. How it is done:
Human hepatocarcinoma 7 (Huh7) cells were maintained in 10% FCS-containing complete DMEM. On day of assay, cells were trypsinized with 0.1% Trypsin-EDTA, washed and cultured in triplicate at 1-2×10^4 cells/well in 96-well plates with compounds dispensed at graded doses (Hewlett-Packard D300 Digital Dispenser). All wells were normalized to 0.25% DMSO. After 48 hours, CellTiter Glo (Promega) was added and incubated for 10 minutes at room temp before reading on a luminometer. % viability curves were calculated against no compound and no cell control wells. CC50 values were determined using Prism Graphpad software.
(In general: Cellular ATP, detected with luciferase, serves as a proxy for viable cell number.)

The subject of data set [2] is Dengue serotype 2 New Guinea C (NGC) strain. Put plainly: DENV-2 Huh-7 EC50 (qPCR of viral RNA in infected Huh7 cells). The note with it: Dengue virus, DENV2, Huh-7, Huh7 cells infected with Dengue serotype 2 NGC, MOI=0.1, 48 hours. Format: cell-based. How it is done: Huh7 (Human hepatocarcinoma 7) cells were maintained in 10% FCS-containing DMEM complete media. On the day of the assay, cells were trypsinized (0.1% Trypsin-EDTA), washed and infected for 2 hours in serum-free DMEM with Dengue serotype 2 New Guinea C (NGC) strain at MOI=0.1 with gentle agitation at 37° C. After 2 hours, cells were washed with serum-free media and suspended in 10% FCS-containing DMEM (Gibco, supplemented with sodium pyruvate, NEAA, Penicillin-Streptomycin). 10^5 cells were plated in triplicate in 96-well plates with compounds dispensed at graded doses (Hewlett-Packard D300 Digital Dispenser). All wells were normalized to 0.25% DMSO. At 48 hours, cells were washed with 1× PBS and all supernatants removed. Total RNA was extracted using RNEasy 96 plates (Qiagen) and used to generate first-strand cDNA using XLT cDNA 5× Supermix (QuantaBio). cDNA was used as a template in a Taqman qPCR duplex reaction specific to DENV2 viral and GAPDH gene expression. EC50 values were determined using Prism Graphpad software, with normalization to a positive control and no compound negative control wells.
For orientation: Real-time PCR tracks product formation cycle by cycle.

Data set [3] in a line: moDC CC50 (CellTiter Glo viability). In kind it is cell-based, Human. The following applies: human, uninfected moDCs. As for the experimental part: Human monocyte-derived dendritic cells (moDCs) were derived from CD14+ monocytes (AllCells) cultured in Human Mo-DC Differentiation medium containing GM-CSF and IL-4 (Miltenyi Biotec). On day 7, moDCs were harvested by mechanical disruption, washed and cultured in triplicate at […] cells/well in 96-well plates with compounds dispensed at graded doses (Hewlett-Packard D300 Digital Dispenser). All wells were normalized to 0.25% DMSO. After 48 hours, CellTiter Glo (Promega) was added and incubated for 10 minutes at room temp before reading on a luminometer. % viability curves were calculated against no compound and no cell control wells. CC50 values were determined using Prism Graphpad software.

Data set [4] can be described thus: HEp-2 CC50 (cytotoxicity in uninfected HEp-2 cells). In kind it is cell-based. The note with it: human, CellTiter Glo. How it is done: Instead, an uninfected cell mixture at the same density is added at 20 uL/well to plates containing prediluted compounds, also at 100 nL/sample. Assay plates are then incubated for 4 days followed by a cell viability test using the same CellTiter Glo reagent addition and measurement of luminescent readouts. Untreated cell and cells treated at 2 μM puromycin (Sigma, St. Louis, MO) serve as 100% and 0% cell viability control, respectively.

Data set [5] relates to Dengue 2, New Guinea strain (NGC). Put plainly: DENV-2 moDC EC50 (qPCR of viral RNA in infected moDCs). Format: cell-based, New Guinea strain (NGC); human moDCs. The note with it: Dengue virus, human moDCs infected with Dengue 2 NGC, MOI=0.1, 48 hours. How it is done:
Example 82. DENV-2 moDC EC50
Human monocyte-derived dendritic cells (moDCs) were derived from CD14+ monocytes (AllCells) cultured in Human Mo-DC Differentiation medium containing GM-CSF and IL-4 (Miltenyi Biotec). On day 7, moDCs were harvested by mechanical disruption, washed and suspended in serum-free RPMI. moDCs were infected with Vero-derived Dengue 2, New Guinea strain (NGC) at a MOI=0.1 for two hours in serum-free RPMI with gentle agitation at 37° C. Cells were washed and resuspended in 10% serum-containing RPMI (Gibco, supplemented with sodium pyruvate, NEAA, Penicillin-Streptomycin). […] were plated in triplicate in 96-well plates with compounds dispensed at graded doses (Hewlett-Packard D300 Digital Dispenser). All wells were normalized to 0.25% DMSO. At 48 hours, cells were washed with 1×PBS and all supernatants removed. Total RNA was extracted using RNEasy 96 plates (Qiagen) and used to generate first-strand cDNA using XLT cDNA 5× Supermix (QuantaBio). cDNA was used as a template in a Taqman qPCR duplex reaction specific to DENV2 viral and GAPDH gene expression. EC50 values were determined using Prism Graphpad software, with normalization to a positive control and no compound negative control wells.

The text below walks through data of patent publication US12030903B2, “Antiviral compounds” (Gilead Sciences, Inc., priority 2020, dated 2024).

Where only a bound is given, the exact number is not on record here.

Broadly, the EC50 is the midpoint of the concentration-response curve. By CC50 is commonly meant the concentration giving 50% cytotoxicity. Regarding `CCCC(CCC)COC(=O)[C@H](C)NP(=O)(OC[C@@]1(CF)O[C@@H](c2ccc3c(N)ncnn23)[C@H](O)[C@@H]1O)Oc1ccccc1` (stereo partly drawn) [Example 68, 2-propylpentyl ((((2R,3S,4R,5S)-5-(4-aminopyrrolo[2,1-f][1,2,4]triazin-7-yl)-2-(fluoromethyl)-3,4-dihydroxytetrahydrofuran-2-yl)methoxy)(phenoxy)phosphoryl)-L-alaninate], the EC50 came out at 0.141 µM in the data set on RSV strain A2, 0.278 µM in data set [2] and 0.169 µM in data set [5]. Further, the 50% cytotoxic concentration (CC50) at 48 h in data set [1] is more than 25 µM; in data set [3], 6.26 µM. In data set [4], this molecule yielded a cytotoxic concentration (CC50) at 4 days of more than 100 µM.
Take `C[C@H](NP(=O)(OC[C@@]1(CF)O[C@@H](c2ccc3c(N)ncnn23)[C@H](O)[C@@H]1O)Oc1ccccc1)C(=O)OCCC(C)(C)C` (stereo partly drawn) [Example 4, 3,3-dimethylbutyl ((((2R,3S,4R,5S)-5-(4-aminopyrrolo[2,1-f][1,2,4]triazin-7-yl)-2-(fluoromethyl)-3,4-dihydroxytetrahydrofuran-2-yl)methoxy)(phenoxy)phosphoryl)-L-alaninate]: the EC50 is 0.029 µM with RSV strain A2, 0.132 µM in data set [2] and 0.058 µM in data set [5]. Besides, the half-maximal cytotoxic concentration (CC50) at 48 h in data set [1] is 17.8 µM; in data set [3], 4.78 µM. In data set [4], this molecule returned a 50% cytotoxic concentration (CC50) at 4 days of more than 100 µM.
Take `C[C@H](NP(=O)(OC[C@@]1(CF)O[C@@H](c2ccc3c(N)ncnn23)[C@H](O)[C@@H]1O)Oc1ccccc1)C(=O)OCC(C)(C)C` (stereo partly drawn) [Example 3, neopentyl ((((2R,3S,4R,5S)-5-(4-aminopyrrolo[2,1-f][1,2,4]triazin-7-yl)-2-(fluoromethyl)-3,4-dihydroxytetrahydrofuran-2-yl)methoxy)(phenoxy)phosphoryl)-L-alaninate]: the concentration giving a half-maximal response (EC50) in the data set on RSV strain A2 was found to be 0.077 µM; in data set [2] it was 0.092 µM; in data set [5] it was 0.156 µM. In addition, the CC50 at 48 h in data set [1] is more than 25 µM; in data set [3] it was more than 11.1 µM. The molecule further came in with a CC50 at 4 days in data set [4] of more than 100 µM.
`CCC(CC)COC(=O)[C@H](C)N[P@](=O)(OC[C@@]1(CF)O[C@@H](c2ccc3c(=N)n(COP(=O)(O)O)cnn23)[C@H](O)[C@@H]1O)Oc1ccccc1` (single isomer, unassigned) [Example 34]: the CC50 at 48 h in data set [1] came out at 6.47 µM; in data set [3] it was 7.66 µM. The EC50 in data set [2] turned out to be 0.165 µM; in data set [5], 0.334 µM.
For the molecule `CCOC(=O)[C@@H](NP(=O)(OC[C@@]1(CF)O[C@@H](c2ccc3c(N)ncnn23)[C@H](O)[C@@H]1O)Oc1ccccc1)C(C)C` (stereo partly drawn) [Example 69, ethyl ((((2R,3S,4R,5S)-5-(4-aminopyrrolo[2,1-f][1,2,4]triazin-7-yl)-2-(fluoromethyl)-3,4-dihydroxytetrahydrofuran-2-yl)methoxy)(phenoxy)phosphoryl)-L-valinate], the EC50 with RSV strain A2 is more than 50 µM; in data set [2], more than 25 µM. This molecule also returned a CC50 at 48 h in data set [1] of more than 25 µM. Besides, in data set [4], the CC50 at 4 days is more than 50 µM.
On to `C[C@H](NP(=O)(OC[C@@]1(CF)O[C@@H](c2ccc3c(N)ncnn23)[C@H](O)[C@@H]1O)Oc1ccccc1)C(=O)OCC(C)(C)C(F)(F)F` (stereo partly drawn) [Example 53, 3,3,3-trifluoro-2,2-dimethylpropyl ((((2R,3S,4R,5S)-5-(4-aminopyrrolo[2,1-f][1,2,4]triazin-7-yl)-2-(fluoromethyl)-3,4-dihydroxytetrahydrofuran-2-yl)methoxy)(phenoxy)phosphoryl)-L-alaninate], for which the EC50 in the data set with RSV strain A2 turned out to be 0.565 µM; in data set [2], 0.419 µM. In addition, half-maximal cytotoxicity in data set [1] (CC50 at 48 h) was put at 19.7 µM. The same molecule yielded a 50% cytotoxic concentration (CC50) at 4 days in data set [4] of more than 100 µM.
For `C[C@H](NP(=O)(OC[C@@]1(CF)O[C@@H](c2ccc3c(N)ncnn23)[C@H](O)[C@@H]1O)Oc1ccccc1)C(=O)O[C@@H]1CCN(C)C1` (stereo partly drawn) [Example 35, (R)-1-methylpyrrolidin-3-yl ((((2R,3S,4R,5S)-5-(4-aminopyrrolo[2,1-f][1,2,4]triazin-7-yl)-2-(fluoromethyl)-3,4-dihydroxytetrahydrofuran-2-yl)methoxy) (phenoxy)phosphoryl)-L-alaninate] the same measures were 42.8 µM, more than 25 µM, more than 25 µM and more than 100 µM.
For `CC(=O)O[C@H]1[C@H](c2ccc3c(N)ncnn23)O[C@](CF)(CO[P@@](=O)(N[C@@H](C)C(=O)OC(C)C)Oc2ccccc2)[C@H]1OC(C)=O` [Example 20, (2R,3S,4S,5S)-5-(4-aminopyrrolo[2,1-f][1,2,4]triazin-7-yl)-2-(fluoromethyl)-2-((((S)-(((S)-1-isopropoxy-1-oxopropan-2-yl)amino)(phenoxy)phosphoryl)oxy)methyl) tetrahydrofuran-3,4-diyl diacetate] the same measures were 3.18 µM, 2.57 µM, more than 25 µM and more than 100 µM.
For `CCOC(=O)[C@H](C)NP(=O)(OC[C@@]1(CF)O[C@@H](c2ccc3c(N)ncnn23)[C@H](O)[C@@H]1O)Oc1cccc2ccccc12` (stereo partly drawn) [Example 44, ethyl ((((2R,3S,4R,5S)-5-(4-aminopyrrolo[2,1-f][1,2,4]triazin-7-yl)-2-(fluoromethyl)-3,4-dihydroxytetrahydrofuran-2-yl)methoxy)(naphthalen-1-yloxy)phosphoryl)-L-alaninate] the same measures were 0.148 µM, 0.191 µM, 17.1 µM and 26.5 µM.
